Earlier results as cited in patent US20220288059A1, “NANOENCAPSULATED CANNABIDIOL” (Aphios Corporation, priority 2020, published 2022).

How the values were obtained:
rats = settings: i.v.
rhesus monkeys = settings: intravenously
mice [1] = settings: intravenously
mice [2] = test system: mice
dogs = settings: intravenously

For C=C(C)[C@@H]1CCC(C)=C[C@H]1c1c(O)cc(CCCCC)cc1O [CBD, cannabidiol], the “toxicity relative to Δ9-THC by LD50” value (rats) is given as “less toxic than Δ9-THC”, the “anti-nociceptive effect, tail-flick test” value (Wistar rats) is given as “dose-dependent anti-nociceptive effects” and the “LD50 in rhesus monkeys” value (rhesus monkeys) is given as 212 mg/kg. The LD50 in mice (mice [1]) was 50 mg/kg, the “inhibition of cue-induced heroin-seeking behaviors” value (mice [2]) was “effectively inhibit cue-induced heroin-seeking behaviors” and the LD50 in dogs (dogs) was 254 mg/kg.
